Experimental data reported in ChEMBL document CHEMBL1275437, “Prevalence of serotype 19A Streptococcus pneumoniae among isolates from U.S. children in 2005-2006 and activity of faropenem” (2008).
≈ marks a conversion by molar mass, not a printed value.

Legend:
Streptococcus pneumoniae [1] = experiment: Antibacterial activity against Streptococcus pneumoniae serotype 6A/C by broth microdilution method; type: functional
Streptococcus pneumoniae [2] = experiment: Antibacterial activity against non-multidrug-resistant Streptococcus pneumoniae; type: functional
Streptococcus pneumoniae [3] = experiment: Antibacterial activity against Streptococcus pneumoniae serotype 33 by broth microdilution method; type: functional
Streptococcus pneumoniae [4] = experiment: Antibacterial activity against Streptococcus pneumoniae serotype 3 by broth microdilution method; type: functional
Streptococcus pneumoniae [5] = experiment: Antibacterial activity against Streptococcus pneumoniae serotype 15A by broth microdilution method; type: functional
Streptococcus pneumoniae [6] = experiment: Antibacterial activity against Streptococcus pneumoniae serotype 19A by broth microdilution method; type: functional
Streptococcus pneumoniae [7] = experiment: Antibacterial activity against Streptococcus pneumoniae serotype 22 by broth microdilution method; type: functional
Streptococcus pneumoniae [8] = experiment: Antibacterial activity against multidrug-resistant Streptococcus pneumoniae infected in mouse neutropenic thigh infection model; type: functional; conditions: Thigh muscle
Streptococcus pneumoniae [9] = experiment: Antibacterial activity against Streptococcus pneumoniae serotype 19F by broth microdilution method; type: functional
[10] = T>MIC in mouse prophylaxis model infected with Bacillus anthracis; type: functional
[11] = T>MIC in mouse neutropenic thigh infection model infected with multidrug-resistant Streptococcus pneumoniae; type: functional, Thigh muscle
Streptococcus pneumoniae [12] = experiment: Antibacterial activity against multidrug-resistant Streptococcus pneumoniae; type: functional
Streptococcus pneumoniae [13] = experiment: Antibacterial activity against Streptococcus pneumoniae serotype 23A by broth microdilution method; type: functional
Streptococcus pneumoniae [14] = experiment: Antibacterial activity against Streptococcus pneumoniae serotype 35B by broth microdilution method; type: functional
Streptococcus pneumoniae [15] = experiment: Antibacterial activity against Streptococcus pneumoniae serotype 15A by broth microdilution method in presence of clavulanate; type: functional
Streptococcus pneumoniae [16] = experiment: Antibacterial activity against Streptococcus pneumoniae serotype 3 assessed as percent susceptible isolates by broth microdilution method in presence of clavulanate; type: functional
Streptococcus pneumoniae [17] = experiment: Antibacterial activity against Streptococcus pneumoniae serotype 35B assessed as percent resistant isolates by broth microdilution method in presence of clavulanate; type: functional
Streptococcus pneumoniae [18] = experiment: Antibacterial activity against Streptococcus pneumoniae serotype 19F assessed as percent resistant isolates by broth microdilution method in presence of clavulanate; type: functional
Streptococcus pneumoniae [19] = experiment: Antibacterial activity against Streptococcus pneumoniae serotype 6A/C assessed as percent susceptible isolates by broth microdilution method in presence of clavulanate; type: functional
Streptococcus pneumoniae [20] = experiment: Antibacterial activity against Streptococcus pneumoniae serotype 22 assessed as percent susceptible isolates by broth microdilution method in presence of clavulanate; type: functional
Streptococcus pneumoniae [21] = experiment: Antibacterial activity against Streptococcus pneumoniae serotype 19A assessed as percent susceptible isolates by broth microdilution method in presence of clavulanate; type: functional
Streptococcus pneumoniae [22] = experiment: Antibacterial activity against Streptococcus pneumoniae serotype 3 by broth microdilution method in presence of clavulanate; type: functional
Streptococcus pneumoniae [23] = experiment: Antibacterial activity against Streptococcus pneumoniae serotype 22 by broth microdilution method in presence of clavulanate; type: functional
Streptococcus pneumoniae [24] = experiment: Antibacterial activity against Streptococcus pneumoniae serotype 3 assessed as percent resistant isolates by broth microdilution method in presence of clavulanate; type: functional
Streptococcus pneumoniae [25] = experiment: Antibacterial activity against Streptococcus pneumoniae serotype 33 assessed as percent resistant isolates by broth microdilution method in presence of clavulanate; type: functional
Streptococcus pneumoniae [26] = experiment: Antibacterial activity against Streptococcus pneumoniae serotype 33 by broth microdilution method in presence of clavulanate; type: functional
Streptococcus pneumoniae [27] = experiment: Antibacterial activity against Streptococcus pneumoniae serotype 23A by broth microdilution method in presence of clavulanate; type: functional
Streptococcus pneumoniae [28] = experiment: Antibacterial activity against Streptococcus pneumoniae serotype 33 assessed as percent susceptible isolates by broth microdilution method in presence of clavulanate; type: functional
Streptococcus pneumoniae [29] = experiment: Antibacterial activity against Streptococcus pneumoniae serotype 22 assessed as percent resistant isolates by broth microdilution method in presence of clavulanate; type: functional
Streptococcus pneumoniae [30] = experiment: Antibacterial activity against Streptococcus pneumoniae serotype 19A by broth microdilution method in presence of clavulanate; type: functional
Streptococcus pneumoniae [31] = experiment: Antibacterial activity against Streptococcus pneumoniae serotype 19F assessed as percent susceptible isolates by broth microdilution method in presence of clavulanate; type: functional
Streptococcus pneumoniae [32] = experiment: Antibacterial activity against Streptococcus pneumoniae serotype 6A/C by broth microdilution method in presence of clavulanate; type: functional
Streptococcus pneumoniae [33] = experiment: Antibacterial activity against Streptococcus pneumoniae serotype 23A assessed as percent susceptible isolates by broth microdilution method in presence of clavulanate; type: functional
Streptococcus pneumoniae [34] = experiment: Antibacterial activity against Streptococcus pneumoniae serotype 35B assessed as percent susceptible isolates by broth microdilution method in presence of clavulanate; type: functional
Streptococcus pneumoniae [35] = experiment: Antibacterial activity against Streptococcus pneumoniae serotype 23A assessed as percent resistant isolates by broth microdilution method in presence of clavulanate; type: functional
Streptococcus pneumoniae [36] = experiment: Antibacterial activity against Streptococcus pneumoniae serotype 15A assessed as percent resistant isolates by broth microdilution method in presence of clavulanate; type: functional
Streptococcus pneumoniae [37] = experiment: Antibacterial activity against Streptococcus pneumoniae serotype 19A assessed as percent resistant isolates by broth microdilution method in presence of clavulanate; type: functional
Streptococcus pneumoniae [38] = experiment: Antibacterial activity against Streptococcus pneumoniae serotype 15A assessed as percent susceptible isolates by broth microdilution method in presence of clavulanate; type: functional
Streptococcus pneumoniae [39] = experiment: Antibacterial activity against Streptococcus pneumoniae serotype 6A/C assessed as percent resistant isolates by broth microdilution method in presence of clavulanate; type: functional
Streptococcus pneumoniae [40] = experiment: Antibacterial activity against Streptococcus pneumoniae serotype 19F by broth microdilution method in presence of clavulanate; type: functional
Streptococcus pneumoniae [41] = experiment: Antibacterial activity against Streptococcus pneumoniae serotype 35B by broth microdilution method in presence of clavulanate; type: functional

SMILES: C[C@@H](O)[C@H]1C(=O)N2C(C(=O)O)=C([C@H]3CCCO3)S[C@H]12 [FAROPENEM]
- MIC90 (Streptococcus pneumoniae [1]): 0.25 µg/mL (≈ 0.876 µM)
- MIC90 (Streptococcus pneumoniae [2]): 0.25 µg/mL (≈ 0.876 µM)
- MIC90 (Streptococcus pneumoniae [3]): 0.015 µg/mL (≈ 0.0526 µM)
- MIC90 (Streptococcus pneumoniae [4]): 0.015 µg/mL (≈ 0.0526 µM)
- MIC90 (Streptococcus pneumoniae [5]): 0.12 µg/mL (≈ 0.421 µM)
- MIC90 (Streptococcus pneumoniae [6]): 1 µg/mL (≈ 3.5 µM)
- MIC90 (Streptococcus pneumoniae [7]): 0.015 µg/mL (≈ 0.0526 µM)
- MIC90 (Streptococcus pneumoniae [8]): > 2 µg/mL
- MIC90 (Streptococcus pneumoniae [9]): 1 µg/mL (≈ 3.5 µM)
- fT>MIC [10]: 16.4%
- fT>MIC [11]: 13.9%
- MIC90 (Streptococcus pneumoniae [12]): 2 µg/mL (≈ 7.01 µM)
- MIC90 (Streptococcus pneumoniae [13]): 0.06 µg/mL (≈ 0.21 µM)
- MIC90 (Streptococcus pneumoniae [14]): 0.5 µg/mL (≈ 1.75 µM)

SMILES: CC1(C)S[C@@H]2[C@H](NC(=O)[C@H](N)c3ccc(O)cc3)C(=O)N2[C@H]1C(=O)O [AMOXICILLIN]
- MIC90 (Streptococcus pneumoniae [15]): 0.25 µg/mL
- % susceptible isolates (Streptococcus pneumoniae [16]): 100%
- % resistant isolates (Streptococcus pneumoniae [17]): 0%
- % resistant isolates (Streptococcus pneumoniae [18]): 48%
- % susceptible isolates (Streptococcus pneumoniae [19]): 97%
- % susceptible isolates (Streptococcus pneumoniae [20]): 100%
- % susceptible isolates (Streptococcus pneumoniae [21]): 62%
- MIC90 (Streptococcus pneumoniae [22]): ≤ 0.12 µg/mL
- MIC90 (Streptococcus pneumoniae [23]): ≤ 0.12 µg/mL
- % resistant isolates (Streptococcus pneumoniae [24]): 0%
- % resistant isolates (Streptococcus pneumoniae [25]): 0%
- MIC90 (Streptococcus pneumoniae [26]): ≤ 0.12 µg/mL
- MIC90 (Streptococcus pneumoniae [27]): 0.25 µg/mL
- % susceptible isolates (Streptococcus pneumoniae [28]): 100%
- % resistant isolates (Streptococcus pneumoniae [29]): 0%
- MIC90 (Streptococcus pneumoniae [30]): 8 µg/mL
- % susceptible isolates (Streptococcus pneumoniae [31]): 47%
- MIC90 (Streptococcus pneumoniae [32]): 1 µg/mL
- % susceptible isolates (Streptococcus pneumoniae [33]): 100%
- % susceptible isolates (Streptococcus pneumoniae [34]): 100%
- % resistant isolates (Streptococcus pneumoniae [35]): 0%
- % resistant isolates (Streptococcus pneumoniae [36]): 0%
- % resistant isolates (Streptococcus pneumoniae [37]): 35%
- % susceptible isolates (Streptococcus pneumoniae [38]): 100%
- % resistant isolates (Streptococcus pneumoniae [39]): 3%
- MIC90 (Streptococcus pneumoniae [40]): 16 µg/mL
- MIC90 (Streptococcus pneumoniae [41]): 2 µg/mL
